SMILES strings stand for the structures.

T1 sequence (Q13224 27-1484, other chains not shown): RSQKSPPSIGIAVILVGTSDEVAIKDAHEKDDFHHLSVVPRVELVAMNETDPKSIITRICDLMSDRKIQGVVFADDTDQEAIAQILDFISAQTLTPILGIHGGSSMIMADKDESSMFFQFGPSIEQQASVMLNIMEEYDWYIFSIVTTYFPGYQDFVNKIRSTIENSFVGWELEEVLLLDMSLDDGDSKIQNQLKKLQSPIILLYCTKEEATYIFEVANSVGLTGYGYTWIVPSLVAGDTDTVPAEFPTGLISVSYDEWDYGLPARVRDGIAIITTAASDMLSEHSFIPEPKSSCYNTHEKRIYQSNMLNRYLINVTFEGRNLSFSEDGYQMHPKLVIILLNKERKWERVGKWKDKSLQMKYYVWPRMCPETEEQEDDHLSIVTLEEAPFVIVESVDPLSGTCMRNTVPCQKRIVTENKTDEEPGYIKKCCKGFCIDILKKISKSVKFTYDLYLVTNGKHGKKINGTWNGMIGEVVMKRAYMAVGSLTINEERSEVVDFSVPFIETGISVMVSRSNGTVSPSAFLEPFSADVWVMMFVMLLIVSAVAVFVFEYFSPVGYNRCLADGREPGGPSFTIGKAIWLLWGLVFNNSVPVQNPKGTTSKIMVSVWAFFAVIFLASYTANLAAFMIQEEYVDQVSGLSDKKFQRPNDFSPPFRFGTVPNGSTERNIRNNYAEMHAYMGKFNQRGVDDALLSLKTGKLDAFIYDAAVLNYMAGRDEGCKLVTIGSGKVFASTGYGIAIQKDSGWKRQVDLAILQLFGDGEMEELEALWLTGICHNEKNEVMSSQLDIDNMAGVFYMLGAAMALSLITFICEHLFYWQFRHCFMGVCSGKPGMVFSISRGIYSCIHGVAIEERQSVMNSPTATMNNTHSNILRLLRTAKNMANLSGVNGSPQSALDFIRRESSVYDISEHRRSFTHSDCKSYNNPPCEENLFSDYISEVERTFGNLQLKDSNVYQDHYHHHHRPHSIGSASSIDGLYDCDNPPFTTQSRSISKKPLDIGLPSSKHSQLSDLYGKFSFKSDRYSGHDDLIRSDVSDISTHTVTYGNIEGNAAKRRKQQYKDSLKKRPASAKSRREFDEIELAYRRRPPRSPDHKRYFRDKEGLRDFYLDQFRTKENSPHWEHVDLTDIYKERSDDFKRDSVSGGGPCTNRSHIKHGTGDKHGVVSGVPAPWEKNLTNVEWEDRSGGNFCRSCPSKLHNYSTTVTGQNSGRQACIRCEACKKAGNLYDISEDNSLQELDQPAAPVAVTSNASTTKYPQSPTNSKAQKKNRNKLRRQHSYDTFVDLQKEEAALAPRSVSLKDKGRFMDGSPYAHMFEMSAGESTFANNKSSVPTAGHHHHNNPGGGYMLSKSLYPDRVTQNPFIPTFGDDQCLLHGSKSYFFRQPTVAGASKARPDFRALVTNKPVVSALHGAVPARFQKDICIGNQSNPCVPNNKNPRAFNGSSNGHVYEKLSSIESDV

One assay addresses T1, NMDA receptor composed of four subunits including 2 sets of heterodimers of NR1 and NR2B (Homo sapiens, UniProt Q13224).
T1 construct: host or cells: HEK293 (tetracycline-induced expression)
Kind of assay: NR2B Ca2+ influx assay (FLIPR, Fluo-4) in HEK293 cells expressing human GRIN1 and GRIN2B. As to conditions: HEK293, 10 μM final compound concentration, glutamic acid/glycine-induced Ca2+ influx, read-out: inhibitory rate (10 μM compound concentration). The assay is classed as cell-based. An outline of the steps:
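Inhibition rate was calculated from 5-min cumulative Fluo-4 signal (FLIPR, 3-s reads), using agonist-free buffer wells as 100% inhibition. Compound, 10 μM final, was applied 15 min before adding buffer with 30 μM glutamic acid and glycine to HEK293 cells with tetracycline-induced human NR1/NR2B, in HEPES pH 7.2 with 1.8 mM CaCl2.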
On to `Cc1ccc2[nH]nnc2c1CNC(=O)c1cc(F)c(C)c(F)c1` [Example 196, 3,5-difluoro-4-methyl-N-((5-methyl-1H-benzotriazol-4-yl)methyl)benzamide], for which the inhibition at 10 µM was found to be 78%.
Take `COc1ccc(NC(=O)NCc2c(OC)ccc3ncn(C)c23)c(F)c1F` [Example 259, 1-(2,3-difluoro-4-methoxyphenyl)-3-((6-methoxy-1-methyl-1H-benzimidazol-7-yl)methyl)urea]: the inhibition at 10 µM amounted to 87%.
The same measure, in the same setting: the result for `COc1c(F)cc(C(=O)NCc2cccc3[nH]ncc23)cc1F` [Example 180, 3,5-difluoro-N-(1H-indazol-4-ylmethyl)-4-methoxybenzamide] reads 89%; that for `O=C(NCc1c(C2CC2)ccc2[nH]ncc12)c1cc(F)c(C(F)(F)F)c(F)c1` [Example 91, N-((5-cyclopropyl-1H-indazol-4-yl)methyl)-3,5-difluoro-4-(trifluoro-methyl)benzamide], 94%; that for `COc1ccc2ncn(C)c2c1CNC(=O)c1ccc(F)c(C(F)(F)F)c1` [Example 40, 4-fluoro-N-((6-methoxy-1-methyl-1H-benzimidazol-7-yl)methyl)-3-(trifluoro-methyl)benzamide], 89%.
As to `O=C(NCc1cccc2[nH]ncc12)c1ccc(C(F)(F)F)c(F)c1` [Example 174, 3-fluoro-N-(1H-indazol-4-ylmethyl)-4-(trifluoromethyl)-benzamide], the inhibition at 10 µM stood at 80%.
Same read-out and setting: the result for `Cc1ccc2ncn(C)c2c1CNC(=O)c1cc(F)c(OC(F)F)c(F)c1` [Example 158, 4-(difluoromethoxy)-N-((1,6-dimethyl-1H-benzimidazol-7-yl)methyl)-3,5-difluorobenzamide] reads 89%; that for `COc1ccc2nc(C)n(C)c2c1CNC(=O)c1ccc(C(F)F)cc1` [Example 241, 4-(difluoromethyl)-N-((6-methoxy-1,2-dimethyl-lH-benzimidazol-7-yl)methyl)benzamide], 70%; that for `O=C(NCc1c(C2CC2)ccc2[nH]ncc12)c1cc(F)c(Cl)c(Cl)c1` [Example 87, 3,4-dichloro-N-((5-cyclopropyl-1H-indazol-4-yl)methyl)-5-fluorobenzamide], 94%.
Consider `COc1ccc2nc(C)n(C)c2c1CNC(=O)c1cnc(OC)c(F)c1` [Example 235, 5-fluoro-6-methoxy-N-((6-methoxy-1,2-dimethyl-1H-benzimidazol-7-yl)methyl)nicotinamide], for which the inhibition at 10 µM amounted to 57%.
`Cc1ccc2[nH]nnc2c1CNC(=O)c1cc(F)c(Cl)c(F)c1` [Example 198, 4-chloro-3,5-difluoro-N-((5-methyl-1H-benzotriazol-4-yl)methyl)benzamide]: the inhibition at 10 µM was 90%.
Turning to `O=C(NCc1c(C2CC2)ccc2[nH]ncc12)c1ccc(OC(F)(F)F)c(F)c1` [Example 88, N-((5-cyclopropyl-1H-indazol-4-yl)methyl)-3-fluoro-4-(trifluoro-methoxy)benzamide], the inhibition at 10 µM came out at 93%.
Turning to `COc1ccc2ncn(C)c2c1CNC(=O)c1ccc(OC(F)(F)F)c(F)c1` [Example 52, 3-fluoro-N-((6-methoxy-1-methyl-1H-benzimidazol-7-yl)methyl)-4-(trifluoro-methoxy)benzamide], the inhibition at 10 µM stood at 91%.
For `CCc1ccc2ncn(C)c2c1CNC(=O)c1ccc(C(F)F)c(F)c1` [Example 146, 4-(difluoromethyl)-N-((6-ethyl-1-methyl-1H-benzimidazol-7-yl)methyl)-3-fluorobenzamide], the inhibition at 10 µM was determined as 90%.
On to `O=C(NCc1cccc2[nH]ncc12)c1cc(F)c(F)c(Cl)c1` [Example 188, 3-chloro-4,5-difluoro-N-(1H-indazol-4-ylmethyl)benzamide], for which the inhibition at 10 µM is 52%.
For the compound `O=C(NCc1c(C2CC2)ccc2[nH]ncc12)c1ccc(Cl)c(F)c1` [Example 78, 4-chloro-N-((5-cyclopropyl-1H-indazol-yl)methyl)-3-fluorobenzamide], the inhibition at 10 µM came out at 93%.
Take `CCc1ccc2ncn(C)c2c1CNC(=O)c1cnc(OC)c(F)c1` [Example 22, N-((6-ethyl-1-methyl-1H-benzimidazol-7-yl)-methyl)-5-fluoro-6-methoxynicotinamide]: the inhibition at 10 µM came to 90%.
Still for that read-out and setting: next, `COc1ccc2nc(C)n(C)c2c1CNC(=O)c1cc(F)c(C(F)F)c(F)c1` [Example 240, 4-(difluoromethyl)-3,5-difluoro-N-((6-methoxy-1,2-dimethyl-1H-benzimidazol-7-yl)methyl)benzamide]: 53%; `COc1ccc2nc(C)n(C)c2c1CNC(=O)c1ccc(OC(F)(F)F)nc1` [Example 233, N-((6-methoxy-1,2-dimethyl-lH-benzimidazol-7-yl)methyl)-6-(trifluoromethoxy)-nicotinamide]: 72%; `O=C(NCc1cccc2[nH]ncc12)c1ccc(OC(F)(F)F)nc1` [Example 170, N-(1H-indazol-4-ylmethyl)-6-(trifluoromethoxy)-nicotinamide]: 76%.
In the case of `O=C(NCc1c(C2CC2)ccc2[nH]ncc12)c1ccc(C(F)(F)F)s1` [Example 82, N-((5-cyclopropyl-1H-indazol-4-yl)methyl)-5-(trifluoromethyl)-thiophene-2-carboxamide], the inhibition at 10 µM is 94%.
As to `COc1ccc2ncn(C)c2c1CNC(=O)c1cc(F)c(F)c(F)c1` [Example 41, 3,4,5-trifluoro-N-((6-methoxy-1-methyl-1H-benzimidazol-7-yl)methyl)benzamide], the inhibition at 10 µM was 90%.
Same read-out and setting: the result for `CCc1ccc2ncn(C)c2c1CNC(=O)c1csc(Cl)c1` [Example 147, 5-chloro-N-((6-ethyl-1-methyl-1H-benzimidazol-7-yl)methyl)thiophene-3-carboxamide] reads 92%; that for `COc1ccc2ncn(C)c2c1CNC(=O)Nc1ccc(F)c(C(F)(F)F)c1` [Example 267, 1-(4-fluoro-3-(trifluoromethyl)-phenyl)-3-((6-methoxy-1-methyl-lH-benzimidazol-7-yl)methyl)urea], 74%.
The same measure, in the same setting: next, `COc1ccc2ncn(C)c2c1CNC(=O)c1cc(C)c(F)c(F)c1` [Example 54, 3,4-difluoro-N-((6-methoxy-1-methyl-1H-benzimidazol-7-yl)-methyl)-5-methyl-benzamide]: 85%; `COc1c(F)cc(C(=O)NCc2c(C)ccc3ncn(C)c23)cc1F` [Example 25, N-((1,6-dimethyl-1H-benzimidazol-7-yl)-methyl)-3,5-difluoro-4-methoxybenzamide]: 92%; `O=C(NCc1cccc2[nH]ncc12)c1ccc(OC(F)(F)F)c(F)c1` [Example 179, 3-fluoro-N-(1H-indazol-4-ylmethyl)-4-(trifluoromethoxy)-benzamide]: 96%.
`Cc1ccc2nn(C)cc2c1CNC(=O)c1ccc(OC(F)(F)F)cc1` [Example 1, N-((2,5-dimethyl-2H-indazol-4-yl)methyl)-4-(trifluoromethoxy)benzamide]: the inhibition at 10 µM turned out to be 82%.
In the case of `Cc1cc(C(=O)NCc2c(C3CC3)ccc3[nH]ncc23)ccc1Cl` [Example 73, 4-chloro-N-((5-cyclopropyl-1H-indazol-yl)methyl)-3-methylbenzamide], the inhibition at 10 µM is 94%.
Consider `COc1ccc2nc(C)n(C)c2c1CNC(=O)c1cc(F)c(OC)c(F)c1` [Example 214, 3,5-difluoro-4-methoxy-N-((6-methoxy-1,2-dimethyl-lH-benzimidazol-7-yl)methyl)benzamide], for which the inhibition at 10 µM is 86%.
For `COc1ccc2ncn(C)c2c1CNC(=O)Nc1ccc(F)cc1` [Example 224, 1-(4-fluorophenyl)-3-((6-methoxy-1-methyl-1H-benzimidazol-7-yl)methyl)urea], the inhibition at 10 µM was 81%.
As to `O=C(NCc1c(C2CC2)ccc2[nH]ncc12)c1cc(F)c(F)c(Cl)c1` [Example 95, 3-chloro-N-((5-cyclopropyl-1H-indazol-4-yl)methyl)-4,5-difluorobenzamide], the inhibition at 10 µM amounted to 95%.

The next assay relates to NMDA receptor.
Assay: not given
As to conditions: in vivo; cited from earlier work.
Turning to `CC12CC3CC(C)(C1)CC(N)(C3)C2` [memantine], the “peripheral symptoms of dementia” value is “partially improves peripheral symptoms of dementia”.

A further assay deals with T2, NMDA receptor containing the NR2B subunit (Homo sapiens, UniProt Q13224).
T2 sequence (Q13224 27-1484, other chains not shown): as above
Assay: not given
To be noted: in vivo; cited from earlier work.
For `CC(C(O)c1ccc(O)cc1)N1CCC(Cc2ccccc2)CC1` (centres unmarked) [Ifenprodil], the pain sense threshold result is on record as “pain sense threshold increases”.

The target of the next assay is T2, NMDA receptor containing the NR2B subunit.
Assay: not given
As to conditions: continuous intravenous administration; cited from earlier work.
For `C[C@@H]([C@@H](O)c1ccc(O)cc1)N1CCC(O)(c2ccccc2)CC1` [CP-101, 606], the treatment resistant-depression symptom result is “significantly improves treatment resistant-depression symptom”.

The target of another assay is T3, NMDA receptor containing the NR2B subunit (Rattus norvegicus, UniProt Q00960).
T3 construct: host or cells: rodents, in vivo
T3 sequence (Q00960 27-1482, other chains not shown): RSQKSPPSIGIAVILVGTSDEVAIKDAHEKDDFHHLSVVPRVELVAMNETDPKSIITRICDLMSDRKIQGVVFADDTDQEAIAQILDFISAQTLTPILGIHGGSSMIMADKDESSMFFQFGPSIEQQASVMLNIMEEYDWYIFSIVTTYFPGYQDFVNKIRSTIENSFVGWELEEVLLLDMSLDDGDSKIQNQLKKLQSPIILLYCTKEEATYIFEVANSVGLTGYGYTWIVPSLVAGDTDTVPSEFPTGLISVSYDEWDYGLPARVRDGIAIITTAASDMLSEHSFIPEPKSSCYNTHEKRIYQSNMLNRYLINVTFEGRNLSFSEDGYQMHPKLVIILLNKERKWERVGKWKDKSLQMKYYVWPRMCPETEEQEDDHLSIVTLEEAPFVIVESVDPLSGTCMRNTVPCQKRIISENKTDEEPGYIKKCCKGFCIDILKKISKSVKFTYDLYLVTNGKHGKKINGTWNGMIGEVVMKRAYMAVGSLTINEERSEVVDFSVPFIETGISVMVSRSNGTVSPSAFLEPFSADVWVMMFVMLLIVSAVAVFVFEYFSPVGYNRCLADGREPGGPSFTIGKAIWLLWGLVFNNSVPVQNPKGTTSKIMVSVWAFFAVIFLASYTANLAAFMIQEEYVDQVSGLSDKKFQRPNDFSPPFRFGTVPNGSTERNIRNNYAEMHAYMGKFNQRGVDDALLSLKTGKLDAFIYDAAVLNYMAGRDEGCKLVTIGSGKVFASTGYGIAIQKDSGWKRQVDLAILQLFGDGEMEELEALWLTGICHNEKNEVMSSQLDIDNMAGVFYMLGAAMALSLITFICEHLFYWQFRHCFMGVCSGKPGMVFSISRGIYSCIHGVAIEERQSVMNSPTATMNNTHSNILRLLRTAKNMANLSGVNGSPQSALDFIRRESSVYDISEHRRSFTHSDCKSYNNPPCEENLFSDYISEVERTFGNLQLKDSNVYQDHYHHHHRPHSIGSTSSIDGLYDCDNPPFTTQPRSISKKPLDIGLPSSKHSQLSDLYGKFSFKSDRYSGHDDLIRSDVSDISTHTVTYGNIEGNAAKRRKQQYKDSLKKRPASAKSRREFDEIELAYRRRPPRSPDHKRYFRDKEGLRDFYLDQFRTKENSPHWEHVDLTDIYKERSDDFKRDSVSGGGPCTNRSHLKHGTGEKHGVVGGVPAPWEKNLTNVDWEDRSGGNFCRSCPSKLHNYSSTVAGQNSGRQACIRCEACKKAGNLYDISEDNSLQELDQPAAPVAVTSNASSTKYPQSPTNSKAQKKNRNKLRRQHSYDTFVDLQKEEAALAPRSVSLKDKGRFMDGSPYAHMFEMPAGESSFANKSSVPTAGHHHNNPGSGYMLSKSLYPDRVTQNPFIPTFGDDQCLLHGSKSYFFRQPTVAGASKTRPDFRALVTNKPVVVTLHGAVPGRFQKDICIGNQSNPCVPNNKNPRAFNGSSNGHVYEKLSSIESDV
Assay: not given
To be noted: rodents; cited from earlier work.
Turning to `C[C@@H]([C@@H](O)c1ccc(O)cc1)N1CCC(O)(c2ccccc2)CC1` [CP-101, 606], the “number of occurrence and depth of cortical spreading depression” value was “suppress the number of occurrence and the depth of cortical spreading depression”.
As for `C[C@@H](CN1CCC(Cc2ccccc2)CC1)[C@@H](O)c1ccc(O)cc1` [Ro25-6981], the “number of occurrence and depth of cortical spreading depression” value was “suppress the number of occurrence and the depth of cortical spreading depression”.

A further assay concerns NMDA receptor.
Assay: not given
To be noted: continuous intravenous administration; cited from earlier work.
Turning to `CNC1(c2ccccc2Cl)CCCCC1=O` (centres unmarked) [ketamine], the “depression symptom accompanying major depression and bipolar disorder” value is “improves depression symptom accompanying major depression and bipolar disorder rapidly and in a sustained manner”.

The record behind these values is patent US11230541B2, “Heterocyclic compound” (Takeda Pharmaceutical Company Limited, priority 2017, dated 2022).
